Reference: ChEMBL document CHEMBL1201862, “PubChem BioAssay data set” (2004)
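A five-concentration, 48-hour dose response in 96-well plates underlies each endpoint, interpolated linearly between surrounding concentrations. At the GI50, growth is halved.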 The source made the active and inactive calls. Rule as the data show it: active = GI50 up to about 1.1 µM and inactive = higher.

Columns and labels:
Assay in all cases: DTP human tumour cell line panel, 48 h
[1] = system: 786-0
[2] = system: A549
[3] = system: BT-549
[4] = system: CAKI-1
[5] = system: CCRF-CEM
[6] = system: HCC 2998
[7] = system: HCT-15
[8] = system: HOP-62
[9] = system: HT-29
[10] = system: KM12
[11] = system: LOX IMVI
[12] = system: MCF7
[13] = system: MDA-N
[14] = system: Malme-3M
[15] = system: NCI-H522
[16] = system: OVCAR-5
[17] = system: PC-3
[18] = system: SK-MEL-28
[19] = system: T47D
[20] = system: SF-268

Row | SMILES | GI50 [1] | GI50 [2] | GI50 [3] | GI50 [4] | GI50 [5] | GI50 [6] | GI50 [7] [µM] | GI50 [8] | GI50 [9] | GI50 [10] | GI50 [11] | GI50 [12] | GI50 [13] | GI50 [14] | GI50 [15] | GI50 [16] | GI50 [17] | GI50 [18] | GI50 [19] | GI50 [20]
1 | COc1ccc([C@]23CCN(S(=O)(=O)c4ccc(C)cc4)[C@H]2[C@H](CO)C2(CC3)OCC(C)(C)CO2)cc1OC | > 100 µM (inactive) | > 100 µM (inactive) | > 100 µM (inactive) | > 100 µM (inactive) | > 100 µM (inactive) | > 100 µM (inactive) | > 100 | > 100 µM (inactive) | > 100 µM (inactive) | > 100 µM (inactive) | > 100 µM (inactive) | > 100 µM (inactive) | > 100 µM (inactive) | > 100 µM (inactive) | > 100 µM (inactive) | > 100 µM (inactive) | > 100 µM (inactive) | > 100 µM (inactive) | > 100 µM (inactive) | –
2 | O=C1Nc2ccccc2/C1=N/NC(=S)N1CCCC1 | 0.647 µM (active) | 0.736 µM (active) | 2.54 µM (inactive) | 2.15 µM (inactive) | 0.369 µM (active) | 0.586 µM (active) | 0.281 | 1.19 µM (inactive) | 1.19 µM (inactive) | 2.4 µM (inactive) | 0.673 µM (active) | 2.07 µM (inactive) | 3.4 µM (inactive) | 0.889 µM (active) | 2.12 µM (inactive) | 12.8 µM (inactive) | 0.507 µM (active) | > 100 µM (inactive) | 6.25 µM (inactive) | 9.93 µM (inactive)
3 | OCCCN(CCc1ccc(Cl)c(Cl)c1)CCN1CCCC1 | 24 µM (inactive) | 58.2 µM (inactive) | 40.2 µM (inactive) | > 100 µM (inactive) | 30 µM (inactive) | 18 µM (inactive) | 39.5 | > 100 µM (inactive) | 24.7 µM (inactive) | 45.7 µM (inactive) | 35.9 µM (inactive) | 27.4 µM (inactive) | 17.3 µM (inactive) | 23.9 µM (inactive) | 30.3 µM (inactive) | 31.4 µM (inactive) | 48.9 µM (inactive) | – | 33.1 µM (inactive) | 48 µM (inactive)
4 | CC(C)=CCC[C@@H](C)C1=C(N)C(=O)C(C)=C(O)C1=O | 43.7 µM (inactive) | 32.6 µM (inactive) | > 75 µM (inactive) | 35.2 µM (inactive) | 18.7 µM (inactive) | > 75 µM (inactive) | 23.3 | 55.1 µM (inactive) | 15.6 µM (inactive) | 32.7 µM (inactive) | 36.6 µM (inactive) | 61.5 µM (inactive) | 51.3 µM (inactive) | 56.9 µM (inactive) | 25.8 µM (inactive) | 53.1 µM (inactive) | 54.3 µM (inactive) | > 75 µM (inactive) | 42.9 µM (inactive) | 27.4 µM (inactive)
5 | NNC1=Nc2ccc(Cl)cc2C(=S)N2CSCC12 (stereo not given) | > 100 µM (inactive) | > 100 µM (inactive) | > 100 µM (inactive) | > 100 µM (inactive) | > 100 µM (inactive) | > 100 µM (inactive) | > 100 | > 100 µM (inactive) | > 100 µM (inactive) | 34.6 µM (inactive) | > 100 µM (inactive) | > 100 µM (inactive) | > 100 µM (inactive) | > 100 µM (inactive) | > 100 µM (inactive) | > 100 µM (inactive) | > 100 µM (inactive) | > 100 µM (inactive) | > 100 µM (inactive) | > 100 µM (inactive)
6 | Cc1noc2nnn(-c3ccc(Cl)cc3)c(=O)c12 | 2.45 µM (inactive) | 12.1 µM (inactive) | 3.16 µM (inactive) | 2.05 µM (inactive) | 0.355 µM (active) | 2.15 µM (inactive) | 2.31 | 12.8 µM (inactive) | 4.42 µM (inactive) | 11.7 µM (inactive) | 2.5 µM (inactive) | 2.67 µM (inactive) | 6.01 µM (inactive) | 11.9 µM (inactive) | 0.5 µM (active) | 7.23 µM (inactive) | 3.71 µM (inactive) | 10.8 µM (inactive) | 0.614 µM (active) | 6.98 µM (inactive)
7 | Cc1ccc(-c2cc(-c3cc(-c4ccc(C)cc4C)[nH]n3)[nH]n2)c(C)c1 | 13 µM (inactive) | 13.9 µM (inactive) | 21.9 µM (inactive) | 18.8 µM (inactive) | 0.71 µM (active) | 13.2 µM (inactive) | 15.4 | 13.9 µM (inactive) | 10.8 µM (inactive) | 17.7 µM (inactive) | 19.9 µM (inactive) | 15 µM (inactive) | 14.9 µM (inactive) | 11.1 µM (inactive) | 13.9 µM (inactive) | 23.7 µM (inactive) | 15.1 µM (inactive) | 13.7 µM (inactive) | 15 µM (inactive) | 12.5 µM (inactive)
8 | C=C1C(=O)OC2/C=C(/C)C3(O)OC(C)(CC(OC(=O)C(C)C)C12)CC3OC(C)=O (stereo not given) | 5.27 µM (inactive) | 10.8 µM (inactive) | 5.79 µM (inactive) | 2.48 µM (inactive) | 2.79 µM (inactive) | 4.53 µM (inactive) | 4.45 | 30.4 µM (inactive) | 4.55 µM (inactive) | 16.2 µM (inactive) | 8.87 µM (inactive) | 3.7 µM (inactive) | 2.04 µM (inactive) | 9.91 µM (inactive) | 1.91 µM (inactive) | 12.9 µM (inactive) | 13.7 µM (inactive) | 7.48 µM (inactive) | 13 µM (inactive) | 22.6 µM (inactive)
9 | C=C(CC[C@@H](C(=O)O)[C@H]1[C@H](O)C[C@@]2(C)C3=CC[C@@H](C(=C)C)[C@](C)(CCC(=O)O)C3=CC[C@]12C)C(C)C [PORICOIC ACID A] | 16.6 µM (inactive) | 18.7 µM (inactive) | 18.5 µM (inactive) | 15.2 µM (inactive) | 29.6 µM (inactive) | 17.9 µM (inactive) | 17.2 | – | 17.6 µM (inactive) | 18.3 µM (inactive) | 19.3 µM (inactive) | 17.1 µM (inactive) | 16.9 µM (inactive) | 22.5 µM (inactive) | 20.4 µM (inactive) | 16.5 µM (inactive) | 18.7 µM (inactive) | 19.4 µM (inactive) | 23.8 µM (inactive) | –
10 | CC1(C(=O)O)CCC2(C)CCC3(C)C(=CC(=O)C4C5(C)CCC(O)C(C)(C)C5CCC43C)C2C1 (stereo not given) | 42.1 µM (inactive) | 40.3 µM (inactive) | 11.7 µM (inactive) | 24.4 µM (inactive) | 30.9 µM (inactive) | 23.1 µM (inactive) | 34.8 | – | 20.2 µM (inactive) | 18.3 µM (inactive) | 22.6 µM (inactive) | 50.2 µM (inactive) | 38.7 µM (inactive) | > 100 µM (inactive) | 22.7 µM (inactive) | 29.6 µM (inactive) | 36.1 µM (inactive) | 22.1 µM (inactive) | 30.8 µM (inactive) | 27.4 µM (inactive)
11 | Cn1cc(NC(=O)Nc2cc(C(=O)Nc3cc(C(=O)Nc4ccc5cc(S(=O)(=O)O)cc(S(=O)(=O)O)c5c4)n(C)c3)n(C)c2)cc1C(=O)Nc1cc(C(=O)Nc2ccc3cc(S(=O)(=O)O)cc(S(=O)(=O)O)c3c2)n(C)c1 | > 100 µM (inactive) | 84.9 µM (inactive) | > 100 µM (inactive) | – | > 100 µM (inactive) | > 100 µM (inactive) | > 100 | > 100 µM (inactive) | > 100 µM (inactive) | > 100 µM (inactive) | > 100 µM (inactive) | > 100 µM (inactive) | > 100 µM (inactive) | > 100 µM (inactive) | > 100 µM (inactive) | > 100 µM (inactive) | > 100 µM (inactive) | > 100 µM (inactive) | > 100 µM (inactive) | > 100 µM (inactive)
12 | O=[N+]([O-])c1cccc(-c2ncnc(-c3cccc([N+](=O)[O-])c3)n2)c1 | 27.4 µM (inactive) | > 100 µM (inactive) | 32.2 µM (inactive) | 18.4 µM (inactive) | – | > 100 µM (inactive) | – | 17.8 µM (inactive) | > 100 µM (inactive) | > 100 µM (inactive) | > 100 µM (inactive) | > 100 µM (inactive) | > 100 µM (inactive) | > 100 µM (inactive) | 38.5 µM (inactive) | > 100 µM (inactive) | > 100 µM (inactive) | > 100 µM (inactive) | 81.8 µM (inactive) | 54 µM (inactive)
13 | CCCCCCCCCCCCCCN [TETRADECYLAMINE] | > 100 µM (inactive) | – | > 100 µM (inactive) | > 100 µM (inactive) | > 100 µM (inactive) | > 100 µM (inactive) | > 100 | > 100 µM (inactive) | > 100 µM (inactive) | > 100 µM (inactive) | > 100 µM (inactive) | > 100 µM (inactive) | > 100 µM (inactive) | > 100 µM (inactive) | > 100 µM (inactive) | > 100 µM (inactive) | > 100 µM (inactive) | > 100 µM (inactive) | > 100 µM (inactive) | > 100 µM (inactive)
14 | C=CCOCn1ccc(NC(=O)c2ccccc2)nc1=O | > 100 µM (inactive) | > 100 µM (inactive) | > 100 µM (inactive) | > 100 µM (inactive) | > 100 µM (inactive) | > 100 µM (inactive) | > 100 | > 100 µM (inactive) | > 100 µM (inactive) | > 100 µM (inactive) | > 100 µM (inactive) | > 100 µM (inactive) | > 100 µM (inactive) | > 100 µM (inactive) | > 100 µM (inactive) | – | > 100 µM (inactive) | > 100 µM (inactive) | > 100 µM (inactive) | > 100 µM (inactive)
